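Interpolation was linear, between the two tested concentrations surrounding the appropriate level; five concentrations were tested over 48 hours in 96-well plates. GI50 marks 50% less growth. At the TGI there is no net growth.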
Assays:
Experiment in all cases: NCI-60 cell line screen, 48 h
DU-145 prostate = test system: DU-145 prostate
IGROV1 ovarian = test system: IGROV1 ovarian
MDA-MB-435 = test system: MDA-MB-435
NCI-H460 lung = test system: NCI-H460 lung
RPMI-8226 leukemia = test system: RPMI-8226 leukemia
SF-268 CNS = test system: SF-268 CNS
SR leukemia = test system: SR leukemia
T-47D breast = test system: T-47D breast
TK-10 renal = test system: TK-10 renal
CAKI-1 renal = test system: CAKI-1 renal

SMILES | GI50 (DU-145 prostate) [µM] | TGI (DU-145 prostate) [µM] | GI50 (IGROV1 ovarian) [µM] | TGI (IGROV1 ovarian) [µM] | GI50 (MDA-MB-435) [µM] | TGI (MDA-MB-435) [µM] | GI50 (NCI-H460 lung) [µM] | TGI (NCI-H460 lung) [µM] | GI50 (RPMI-8226 leukemia) [µM] | TGI (RPMI-8226 leukemia) [µM] | GI50 (SF-268 CNS) [µM] | TGI (SF-268 CNS) [µM] | GI50 (SR leukemia) [µM] | TGI (SR leukemia) [µM] | GI50 (T-47D breast) [µM] | TGI (T-47D breast) [µM] | GI50 (TK-10 renal) [µM] | TGI (TK-10 renal) [µM] | TGI (CAKI-1 renal) [µM] | GI50 (CAKI-1 renal) [µM]
COc1cc(-c2nc(SCC(=O)Nc3ccc(C(C)=O)cc3)[nH]c(=O)c2C#N)cc(OC)c1OC | 62.6 | > 100 | 53.4 | > 100 | 24.4 | 87.6 | 39.1 | > 100 | 29.9 | > 100 | 68.7 | > 100 | 19 | > 100 | 34 | > 100 | 96.9 | > 100 | – | –
Cc1ccc(S(=O)(=O)NC(CCC(=O)Nc2ccccc2)C(=O)Nc2ccccc2)cc1 (centres undefined) | – | – | – | – | 0.437 | 2.06 | – | – | 0.309 | 1.58 | – | – | – | – | 0.206 | 0.934 | – | – | – | –
CN(/N=C/c1ccnc2ccccc12)c1ccc([N+](=O)[O-])cc1[N+](=O)[O-] | – | – | – | > 100 | – | – | – | > 100 | – | > 100 | – | > 100 | – | – | – | – | – | > 100 | > 100 | –
CCc1ccc(/C(C)=N/NC(N)=S)cc1 | – | – | – | > 100 | – | – | – | – | – | > 100 | – | > 100 | – | > 100 | – | – | – | > 100 | > 100 | –
O=C(CCCNC(=O)OCc1ccccc1)OCc1ccc2c(c1)C(=O)c1ccccc1C2=O | – | – | – | 99 | – | – | – | > 100 | – | > 100 | – | > 100 | – | > 100 | – | – | – | > 100 | > 89.6 | –
COc1ccc(OC)c(-c2cc(-c3ccccc3)nn2-c2ccc(S(N)(=O)=O)cc2)c1 | 15.6 | 29.5 | 23.3 | > 100 | 6.73 | 24.8 | 11 | 77.3 | 1.93 | 4.84 | 12.6 | 27.5 | 2.82 | > 100 | – | – | 12.7 | 26 | 32.8 | 14.8
CCOC(=O)c1c(C)n(CC(C)C)c2c1cc1oc(=O)c(=O)n3cnc2c13 | 16.3 | > 50 | 15.1 | > 50 | 9.07 | 16.8 | 16.7 | > 50 | 15.8 | 37.2 | 18 | > 50 | 10.4 | > 50 | – | – | 13.3 | 47.6 | 29.2 | 11.4
O=C(N=Nc1c(O)[nH]c2c(Cl)cc(Cl)cc12)c1ccncc1 | – | – | – | > 100 | – | 33.7 | – | > 100 | – | – | – | – | – | 69.2 | – | – | – | > 100 | 39 | –
CCOC(=O)CNC(=O)CCCn1c(=O)c2c3ccccc3n(C)c2n2nnc(-c3ccccc3)c12 | 32 | > 50 | 8.87 | 29.9 | > 50 | > 50 | > 50 | > 50 | 10.7 | 33.9 | 14.2 | > 50 | – | – | 43.9 | > 50 | 8.71 | 20.9 | 20 | 8.37
N#CCC(=O)N/N=C1/C(=O)NC(=O)C(=O)C1c1nc2ccccc2s1 (centres undefined) | – | – | – | > 100 | – | – | – | – | – | > 100 | – | > 100 | – | > 100 | – | – | – | > 100 | > 100 | –
Cc1ccc2[nH]c(C(=O)NN3C(=O)CSC34CCCC(C)C4)c(-c3ccccc3)c2c1 (centres undefined) | 18.7 | 42.4 | 0.0485 | 12 | 18 | 34.8 | 18.1 | 38.4 | 13.7 | 31.5 | 15.6 | 32.5 | – | – | 20.3 | 55.2 | 17.2 | 34.7 | 33.8 | 15.5
O=C(CCC(=O)N/N=C/c1ccccc1O)N/N=C/c1ccccc1O | – | – | – | > 100 | – | – | – | – | – | > 100 | – | 52.4 | – | > 100 | – | – | – | > 100 | > 100 | –
CCN(CC)CCCCCOc1cc(O)c2c(=O)cc(-c3ccccc3)oc2c1 | 4.61 | 17.4 | 2.08 | 4.87 | 3.18 | 7.63 | 2.24 | 5.48 | – | – | 7.82 | 25.5 | – | – | – | – | 7.1 | 27.1 | – | –
CN(C)c1nc(N(C)C)n2nc(-c3ccccc3[N+](=O)[O-])nc2n1 | – | – | – | > 100 | – | – | – | > 100 | – | > 100 | – | > 100 | – | > 100 | – | – | – | > 100 | > 100 | –
CCOC(=O)c1cc2cc(NC(=O)c3cc4cc([N+](=O)[O-])ccc4n3C)ccc2n1C | – | – | > 100 | > 100 | 60.9 | > 100 | 30.6 | > 100 | 49.7 | > 100 | 49.1 | > 100 | – | – | 42 | > 100 | 19.7 | 70.7 | > 100 | 30.9
COc1ccc(CCNCc2cccc(OC)c2OC)cc1OC | – | – | – | > 100 | – | – | – | > 100 | – | > 100 | – | > 100 | – | – | – | – | – | > 100 | > 100 | –
C[C@H]1COC2(c3ccccc3)CCC(=O)N12 (some centres undefined) | – | – | – | > 100 | – | – | – | > 100 | – | > 100 | – | > 100 | – | > 100 | – | – | – | > 100 | > 100 | –
O=C1OC(c2ccccc2)=N/C1=C\c1c(O)cc(O)cc1O | – | – | – | > 100 | – | – | – | – | – | > 100 | – | > 100 | – | – | – | – | – | > 100 | > 100 | –
Cc1[nH]nc2c1N=C(c1ccccc1F)c1cc(C#N)ccc1N2 | 3 | 12.8 | 5.4 | 16.2 | – | – | 0.106 | 15.6 | 7.4 | 19.5 | 0.316 | 5.8 | 0.0641 | > 18 | 1.36 | > 15.2 | 1.91 | 8.73 | 5.66 | 0.051
